Results on four compounds are retold here after US11440883B2, “Heterocyclic compound and use thereof” (Takeda Pharmaceutical Company Limited, priority 2017, dated 2022).

The target in test [1] is T1, human orexin type 2 receptor (Homo sapiens, UniProt O43614).
T1 construct: expressed in transfected cells
T1 sequence (O43614 1-444): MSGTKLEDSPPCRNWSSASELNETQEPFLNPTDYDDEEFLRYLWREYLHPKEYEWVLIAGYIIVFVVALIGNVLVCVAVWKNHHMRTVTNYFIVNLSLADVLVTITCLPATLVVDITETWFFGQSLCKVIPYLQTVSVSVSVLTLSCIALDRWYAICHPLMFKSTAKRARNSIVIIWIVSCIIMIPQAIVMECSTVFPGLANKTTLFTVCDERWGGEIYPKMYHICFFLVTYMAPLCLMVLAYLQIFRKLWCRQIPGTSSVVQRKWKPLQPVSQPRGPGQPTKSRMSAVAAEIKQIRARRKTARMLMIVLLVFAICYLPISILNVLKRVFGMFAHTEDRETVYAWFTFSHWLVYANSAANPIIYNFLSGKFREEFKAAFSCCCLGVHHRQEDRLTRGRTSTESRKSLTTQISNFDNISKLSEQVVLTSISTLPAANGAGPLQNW
As to the kind of experiment: Measurement of orexin type 2 receptor agonist activity (Fluo-4 calcium fluorescence, FDSS). Conditions: 3 μM test compound; CHO cells expressing human OX2 receptor; DMSO = 0%, orexin A (human) = 100%. The test is classed as cell-based. From the text: To obtain a cell clone stably expressing human orexin type 2 receptor, human orexin type 2 receptor cDNA was inserted into pcDNA3.1(+) plasmid vector (Invitrogen), and a plasmid DNA for expression of human orexin type 2 receptor (pcDNA3.1(+)/hOX2R) was cloned. The plasmid DNA was introduced into CHO-dhfr cell by an electroporation method, and human orexin type 2 receptor expressing clone cells were obtained by limiting dilution method by using G418 drug resistance as a selection marker.
CHO cells forcibly expressing human OX2 receptor were seeded in each well of 384 well black transparent bottom plate (BD Falcon) at 7,500 cells/well, and cultured for one day in a 5% CO2 incubator at 37° C. […] A test compound prepared by diluting with assay buffer B (HBSS, 20 mM HEPES, 0.1% BSA) was added at 10 μL/well, and the fluorescence value was measured by FDSSUCELL (Hamamatsu Photonics K.K.) every one sec for 1 min, and thereafter every two sec for 1 min 40 sec. The activity (%) of the test compound was calculated assuming that variation in the fluorescence value when DMSO was added instead of the test compound was 0%, and variation in the fluorescence value when orexin A (human) (PEPTIDE INSTITUTE, INC.) was added at the final concentration of 10 nM was 100%.

The test system of test [2] is cynomolgus monkeys. As to the kind of experiment: Evaluation of wake-promoting effects in cynomolgus monkeys (EEG/EMG/EOG). The test is classed as in vivo, cynomolgus monkey. The settings on record: Macaca fascicularis, sc, at ZT12, time spent in wakefulness for 4 h after administration, male cynomolgus monkeys, read-out: Wakefulness time (% of vehicle treatment) (Mean, n = 1-2).

Take `CCNC(=O)N1CCC[C@H](NS(C)(=O)=O)[C@@H]1Cc1cccc(O[Si](C(C)C)(C(C)C)C(C)C)c1` (relative stereo) [Example 17, cis-N-ethyl-3-((methylsulfonyl)amino)-2-(3-((triisopropylsilyl)oxy)benzyl)piperidine-1-carboxamide]: in test [1], the “OX2R agonist activity (3 μM, %)” value amounted to 29%.

As for `CCS(=O)(=O)N[C@H]1CCN(C(=O)C(C)(C)O)[C@H]1Cc1cccc(-c2cccc(F)c2)c1F` [Example 482, N-((2S,3S)-2-((2,3′-difluorobiphenyl-3-yl)methyl)-1-(2-hydroxy-2-methylpropanoyl)pyrrolidin-3-yl)ethanesulfonamide], the response vs control in vivo at 1 mg/kg in test [2] came to 281%.

With `CC(C)(O)C(=O)N1CC[C@H](NS(C)(=O)=O)[C@@H]1Cc1cccc(-c2cc(F)cc(F)c2)c1F` [Example 483, N-((2S,3S)-1-(2-hydroxy-2-methylpropanoyl)-2-((2,3′,5′-trifluorobiphenyl-3-yl)methyl)pyrrolidin-3-yl)methanesulfonamide], the response vs control in vivo at 1 mg/kg in test [2] was found to be 359%.

`CCS(=O)(=O)N[C@H]1CCN(C(=O)C(C)(C)O)[C@H]1Cc1cccc(-c2cc(F)cc(F)c2)c1F` [Example 484, N-((2S,3S)-1-(2-hydroxy-2-methylpropanoyl)-2-((2,3′,5′-trifluorobiphenyl-3-yl)methyl)pyrrolidin-3-yl)ethanesulfonamide]: the response vs control in vivo at 1 mg/kg in test [2] was 492%.
